Reference: US20230365541A1, “INHIBITOR OF ENHANCER OF ZESTE HOMOLOGUE 2, AND USE THEREOF” (HAISCO PHARMACEUTICALS PTE. LTD., priority 2020, published 2023)

Columns and labels:
CYP2C9 = CYP2C9 (Homo sapiens (Human), UniProt P11712); assay: Cytochrome P450 isozyme inhibition experiment, CYP2C9; format: in vitro ADME; details: human liver microsomes
Procedure: (§1) Experimental objective: the inhibitory effects of test compounds on the activity of human liver microsomal cytochrome P450 isozymes (CYP1A2, CYP2C9, CYP2C19, CYP2D6 and CYP3A4) were determined. […]

EZH2 = EZH2 (Homo sapiens (Human), UniProt Q15910); assay: Test method for EZH2 enzyme activity; format: biochemical; details: H3K27(21-44) and [3H]-SAM
How it was run: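 EZH2 (3 nM final) preincubated 15 min with compound in Tris-HCl pH 9.0 buffer, then H3K27(21-44) peptide and [3H]-SAM added (mixture at 200 nM and 100 nM) for 60 min at room temperature. Reaction quenched with cold SAM; flashplate scintillation read, inhibition normalized to controls and IC50 fitted.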

CYP3A4 = CYP3A4 (Homo sapiens (Human), UniProt P08684); assay: Cytochrome P450 isozyme inhibition experiment, CYP3A4; format: in vitro ADME; details: human liver microsomes, CYP3A4-M
Chain of CYP3A4 (P08684 whole entry): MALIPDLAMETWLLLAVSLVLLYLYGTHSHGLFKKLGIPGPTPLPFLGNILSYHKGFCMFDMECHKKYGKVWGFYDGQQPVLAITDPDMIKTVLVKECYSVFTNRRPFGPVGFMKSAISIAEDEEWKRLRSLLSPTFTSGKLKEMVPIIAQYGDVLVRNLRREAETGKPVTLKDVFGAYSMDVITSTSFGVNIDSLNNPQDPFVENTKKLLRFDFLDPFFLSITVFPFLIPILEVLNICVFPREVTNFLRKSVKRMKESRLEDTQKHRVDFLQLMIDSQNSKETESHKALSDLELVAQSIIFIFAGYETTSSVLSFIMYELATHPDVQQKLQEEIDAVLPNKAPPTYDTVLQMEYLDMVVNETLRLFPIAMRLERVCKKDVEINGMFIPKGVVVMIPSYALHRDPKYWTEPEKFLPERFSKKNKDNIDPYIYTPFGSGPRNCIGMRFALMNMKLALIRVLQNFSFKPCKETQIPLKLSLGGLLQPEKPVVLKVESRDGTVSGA
Procedure: as §1

[1] = Pharmacokinetic experiment in monkeys; format: in vivo; details: male, cynomolgus monkey, plasma
Procedure: Experimental animal: twelve cynomolgus monkeys, 2.4-5.9 kg, male, 3-5.5 years old, purchased from Suzhou Xishan Zhongke Laboratory Animal Co., Ltd, with the production license number of SCXK(SU) 2018-0001.
Before and after the administration, 1.0 mL of blood was taken from the front and rear limb veins of the animals, and placed in an EDTAK2 centrifuge tube. […] Before analysis and detection, all plasma samples were stored at −80° C.

CYP1A2 = CYP1A2 (Homo sapiens (Human), UniProt P05177); assay: Cytochrome P450 isozyme inhibition experiment, CYP1A2; format: in vitro ADME; details: human liver microsomes
Chain of CYP1A2 (P05177 whole entry): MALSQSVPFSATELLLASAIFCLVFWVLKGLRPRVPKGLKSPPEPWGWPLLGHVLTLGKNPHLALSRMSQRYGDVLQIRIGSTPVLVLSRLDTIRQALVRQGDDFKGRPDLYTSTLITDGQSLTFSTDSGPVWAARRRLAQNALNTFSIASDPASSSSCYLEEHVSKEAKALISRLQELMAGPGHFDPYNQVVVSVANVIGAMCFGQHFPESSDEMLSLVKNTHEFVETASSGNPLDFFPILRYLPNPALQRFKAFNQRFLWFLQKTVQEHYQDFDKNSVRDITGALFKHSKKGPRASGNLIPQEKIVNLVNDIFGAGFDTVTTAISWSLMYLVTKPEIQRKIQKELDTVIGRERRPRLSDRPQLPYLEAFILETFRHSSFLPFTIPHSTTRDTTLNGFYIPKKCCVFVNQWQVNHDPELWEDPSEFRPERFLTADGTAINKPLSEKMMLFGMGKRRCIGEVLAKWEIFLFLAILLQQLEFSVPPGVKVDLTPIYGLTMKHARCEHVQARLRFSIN
Procedure: as §1

SU-DHL-6 cells = assay: SU-DHL-6 cell proliferation test; format: cell-based, human; details: incubated for 14 days
Procedure: SU-DHL-6 cells are human B-cell lymphoma cell lines purchased from ATCC and cultured under the following conditions: RPMI-1640+10% FBS+1% double antibody in a 37° C., 5% CO2 incubator. The cells were plated in a 12-well plate, with a cell concentration of 1×10^5 cells/mL. After the cells were plated, the compounds at different concentrations were added and cultured in a 37° C., 5% CO2 incubator. The cells were counted every 3-4 days (Countstar automated cell counter), centrifuged to remove the supernatant, re-diluted to 1×10^5 cells/mL and plated, and then the compounds at different concentrations were further added. After the mixture was incubated for 14 days and the cells were counted, the test was terminated, and the IC50 values were calculated by using the Origen9.2 software.

CYP2D6 = CYP2D6 (Homo sapiens (Human), UniProt P10635); assay: Cytochrome P450 isozyme inhibition experiment, CYP2D6; format: in vitro ADME; details: human liver microsomes
Chain of CYP2D6 (P10635 whole entry): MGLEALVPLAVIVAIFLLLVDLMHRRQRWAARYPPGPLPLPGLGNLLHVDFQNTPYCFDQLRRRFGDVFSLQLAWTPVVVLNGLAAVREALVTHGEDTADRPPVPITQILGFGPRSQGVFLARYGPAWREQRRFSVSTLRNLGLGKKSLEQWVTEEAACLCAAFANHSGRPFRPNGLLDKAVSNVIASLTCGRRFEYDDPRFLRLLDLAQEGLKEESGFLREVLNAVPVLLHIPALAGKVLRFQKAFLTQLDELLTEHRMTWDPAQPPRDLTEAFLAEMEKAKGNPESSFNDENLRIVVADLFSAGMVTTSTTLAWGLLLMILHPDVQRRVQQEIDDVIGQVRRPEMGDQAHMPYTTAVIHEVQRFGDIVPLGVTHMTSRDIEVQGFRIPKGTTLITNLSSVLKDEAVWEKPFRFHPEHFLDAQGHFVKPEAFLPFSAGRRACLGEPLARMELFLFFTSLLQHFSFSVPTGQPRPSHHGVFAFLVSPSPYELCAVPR
Procedure: as §1

CYP2C19 = CYP2C19 (Homo sapiens (Human), UniProt P33261); assay: Cytochrome P450 isozyme inhibition experiment, CYP2C19; format: in vitro ADME; details: human liver microsomes
Chain of CYP2C19 (P33261 whole entry): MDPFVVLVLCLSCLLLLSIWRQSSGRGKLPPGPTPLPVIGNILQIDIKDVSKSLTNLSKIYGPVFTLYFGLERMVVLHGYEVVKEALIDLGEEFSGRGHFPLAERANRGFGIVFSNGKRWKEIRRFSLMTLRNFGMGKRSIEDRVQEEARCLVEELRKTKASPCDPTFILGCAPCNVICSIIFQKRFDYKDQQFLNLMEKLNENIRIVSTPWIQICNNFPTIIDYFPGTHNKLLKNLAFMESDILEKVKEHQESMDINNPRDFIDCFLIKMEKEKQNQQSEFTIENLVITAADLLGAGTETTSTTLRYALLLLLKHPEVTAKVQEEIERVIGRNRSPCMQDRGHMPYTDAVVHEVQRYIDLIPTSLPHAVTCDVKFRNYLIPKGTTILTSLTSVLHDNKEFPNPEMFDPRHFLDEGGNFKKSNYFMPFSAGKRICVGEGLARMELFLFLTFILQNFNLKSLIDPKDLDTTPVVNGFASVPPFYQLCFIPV
Procedure: as §1

[2] = Pharmacokinetic experiment in mice (intravenous 5 mg/kg or intragastric 30 mg/kg); format: in vivo; details: male, ICR, mouse, plasma; for AUC: read-out: AUC
How it was run: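 Plasma (EDTA-K2) compound levels measured by LC-MS/MS after acetonitrile protein precipitation, with verapamil internal standard. Standard curve 2-2000 ng/mL, weighted (1/X^2) least-squares regression on analyte/internal-standard peak-area ratio.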

Chain of CYP2C9 (P11712 whole entry): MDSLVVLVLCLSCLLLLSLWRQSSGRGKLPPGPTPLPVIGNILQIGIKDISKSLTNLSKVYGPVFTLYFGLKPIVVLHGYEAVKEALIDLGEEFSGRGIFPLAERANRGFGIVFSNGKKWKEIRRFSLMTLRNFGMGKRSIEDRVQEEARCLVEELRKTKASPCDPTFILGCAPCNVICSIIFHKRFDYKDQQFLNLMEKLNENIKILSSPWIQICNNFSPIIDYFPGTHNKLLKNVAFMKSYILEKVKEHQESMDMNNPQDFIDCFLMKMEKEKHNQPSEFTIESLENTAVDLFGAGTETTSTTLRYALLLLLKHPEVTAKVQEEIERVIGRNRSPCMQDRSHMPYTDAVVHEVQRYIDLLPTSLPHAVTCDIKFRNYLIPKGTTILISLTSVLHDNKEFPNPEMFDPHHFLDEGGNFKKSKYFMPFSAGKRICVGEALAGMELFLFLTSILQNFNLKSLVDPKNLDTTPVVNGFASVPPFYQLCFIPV

Q: For `[2H]C([2H])(NC(=O)c1cc(Cl)c2c(c1C)OC(C)(C1CCC(NC3COC3)CC1)O2)c1c(SC)cc(C)[nH]c1=O` (single isomer, unassigned) [Compound 59, isomer 2, 7-chloro-2,4-dimethyl-N-((6-methyl-4-(methylthio)-2-oxo-1,2-dihydropyridin-3-yl)methyl-d2)-2-(4-(oxetan-3-ylamino)cyclohexyl)benzo[d][1,3]dioxole-5-carboxamide], which IC50 (CYP2C9) is on record?
A: > 50 µM

Q: What about the IC50 (EZH2) of the same molecule?
A: 0.00044 µM

Q: What about the IC50 (CYP3A4) of the same molecule?
A: > 50 µM

Q: What about the AUC ([1]; IV 3 mg/kg) of the same molecule?
A: 1570 ± 39 ng·h/mL

Q: And the C0 ([1]; IV 3 mg/kg)?
A: 2960 ± 601 ng/mL

Q: What about the half-life ([1]; IV 3 mg/kg) of the same molecule?
A: 2.68 ± 0.14 h

Q: What about the AUC ([1]; PO 15 mg/kg) of the same molecule?
A: 3310 ± 526 ng·h/mL

Q: And the Cmax ([1]; PO 15 mg/kg)?
A: 2320 ± 562 ng/mL

Q: And the Tmax ([1]; PO 15 mg/kg)?
A: 1 h

Q: And the half-life ([1]; PO 15 mg/kg)?
A: 5.11 ± 0.32 h

Q: What about the bioavailability ([1]; PO 15 mg/kg vs IV 3 mg/kg) of the same molecule?
A: 42.1 ± 6.7%

Q: What about the IC50 (CYP1A2) of the same molecule?
A: > 50 µM

Q: What about the IC50 (SU-DHL-6 cells) of the same molecule?
A: 0.00635 µM

Q: What about the IC50 (CYP2D6) of the same molecule?
A: > 50 µM

Q: And the IC50 (CYP2C19)?
A: > 50 µM

Q: What does the source list for `Cc1cc(C)c(CNC(=O)c2cc(Cl)c3c(c2C)O[C@@](C)([C@H]2CC[C@H](N(C)C)CC2)O3)c(=O)[nH]1` [Compound I-2, Valemetostat, reference compound]?
A: IC50 (CYP2C9): > 50 µM; IC50 (CYP3A4): 16.3 µM; IC50 (CYP1A2): > 50 µM; IC50 (CYP2D6): > 50 µM; IC50 (CYP2C19): > 50 µM; half-life ([2]; iv, 5 mg/kg, IV 5 mg/kg): 6.31 h; AUC ([2]; iv, 5 mg/kg, IV 5 mg/kg): 1180 ng·h/mL; C0 ([2]; iv, 5 mg/kg, IV 5 mg/kg, read-out: C0): 2140 ng/mL; half-life ([2]; po, 30 mg/kg, PO 30 mg/kg): 3.05 h; bioavailability ([2]; po, 30 mg/kg, PO 30 mg/kg vs IV 5 mg/kg): 9.08%; AUC ([2]; po, 30 mg/kg, PO 30 mg/kg): 645 ng·h/mL; Cmax ([2]; po, 30 mg/kg, PO 30 mg/kg, read-out: Cmax): 262 ng/mL; Tmax ([2]; po, 30 mg/kg, PO 30 mg/kg, read-out: Tmax): 0.25 h
